The source of these data is article PMC9953701 (Biomedicines, 2023).

In brackets after ≈: the same amount, converted by molar mass. Read-outs that look alike come from different tables or passages of the source. Positions of bridges follow the written chain, without caps; N, C: chain ends. Residues, ends and D or L forms follow the SMILES beside them.

For data set [1], the target named is T1, aureolysin from S. aureus (Staphylococcus aureus, UniProt P81177).
T1 construct: purchased
Kind of data set: Stability in the presence of the protease aureolysin. The format is in vitro ADME. Particulars: peptide:enzyme 200:1, 37 °C, RP-HPLC-MS. How it is done:
Peptide stability was also assayed in commercially available Gram-positive, S. aureus protease, aureolysin. […] All the samples were then incubated at 37 °C at different incubation times. The reaction was quenched by acidifying with 5 µL of 0.1% formic acid. The samples were analyzed on MS coupled to RP-HPLC.

Data set [2] concerns Salmonella enterica serovar Typhimurium DA6192 wild type and LL-37-resistant mutants (waaY, phoP). Kind of data set: MIC against LL-37-resistant strains in buffer conditions. It counts as cell-based. Particulars: 20 mM sodium phosphate buffer with 0.1% TSB, 16 to 20 h, 37 °C. On the set-up: unit not given here. How it is done:
(§1) The LL-37 resistant mutants (DA22427 and DA23307) used in this study were derived from Salmonella enterica serovar Typhimurium DA6192, wild-type and cyclotides-resistant mutants (DA54114 and DA57107) were derived from E. coli MG1655 (wild type) and were kindly provided by Department of Medical Biochemistry and Microbiology, Uppsala University.
(§2) MIC measurements were performed in 20 mM sodium phosphate buffer (PBS), supplemented with 0.1% TSB in 96-well plates (round bottom, Nunc A/S, Roskilde, Denmark) in a total volume of 100 µL. The overnight cultures were diluted 5 × 10^5 CFU/mL in the same medium and 90 µL was transferred into the plates containing 10 µL of 2-fold diluted peptides. […] At least two independent experiments were performed with two technical replicates. In cyclotides, resistant mutant average MIC was reported.

Data set [3] concerns Bacillus cereus CCUG 7414T. It counts as cell-based. Particulars: CCUG 7414, 24 h. An excerpt: (§3) The three bacterial strains—Escherichia coli ATCC 25922, Pseudomonas aeruginosa ATCC 27853, and Staphylococcus aureus ATCC 29213—as well as the fungal strain Candida albicans ATCC 90028 were provided by the Department of Clinical Bacteriology, Lund University Hospital. Bacillus subtilis CCUG 163B^T and Bacillus cereus CCUG 7414^T were obtained from the Department of Molecular Sciences, Swedish University of Agricultural Sciences.
(§4) The standard broth microdilution assay was utilized to assess the MIC of designed peptides according to the guidelines of the Clinical and Laboratory Standards Institute (CLSI). Briefly, bacteria were grown in unbuffered Mueller–Hinton Broth (MHB, VWR International, Leuven, Belgium) as well as buffered (containing 50 mM NaHCO3) medium to the mid-logarithmic phase and were quantified by OD600. The bacterial suspension was diluted in the same medium to reach a final density of 1 × 10^6 colony-forming unit per milliliter (CFU/mL). A volume of 50 µL of the bacterial suspension was added to 96-well plates containing 50 µL of MHB in the absence (viability control) or the presence of the peptides at different concentrations (0.625–80 µM). […] MIC values were derived from 3 sets of independent experiments with different bacterial cultures.

The subject of data set [4] is Bacillus subtilis CCUG 163BT. The format is cell-based. Particulars: CCUG 163, 24 h.
Source text: as §3, §4

A short description of data set [5]: Liposome leakage assay (carboxyfluorescein efflux). Particulars: E. coli lipid liposomes versus POPC/cholesterol liposomes, 45 min, 37 °C. The procedure: The liposome leakage assay was performed as described previously. In brief, the following lipids/lipid mixture was used: Escherichia coli polar lipid extract or 1-palmitoyl-2-oleoyl-sn-glycerol-3-phosphocoline1-palmitoyl-2-oleoyl-sn-glycerol (POPC, both from Avanti Polar Lipids, Alabaster, US-AL) and cholesterol (Sigma Aldrich). The lipid bilayers were formed on round-bottom flask walls by dissolving lipids in chloroform was evaporated under a flow of N2 and the lipid bilayer was placed in a vacuum overnight. Lipid bilayers were re-suspended in an aqueous solution of 100 mM 5(6)-carboxyfluorescein in 10 mM Tris buffer. […] Membrane permeability was measured by monitoring carboxyfluorescein efflux from the liposomes to the external low-concentration environment, resulting in loss of self-quenching and an increased fluorescence signal with excitation and emission wavelengths of 492 and 517 nm, respectively. […] The effect on liposome permeability for each peptide concentration was monitored for 45 min, at which point leakage had largely subsided. […] The EC50 values are (when applicable) calculated using sigmoidal dose–response curves, with the leakage percentage (0–100 constraints) as a function of the peptide concentration (log10), using GraphPad Prism.

The subject of data set [6] is E. coli MG1655 wild type and cyclotides-resistant mutants. The data set is described as follows: MIC against cyclotide-resistant strains in buffer conditions. It counts as cell-based, Escherichia coli. Also on record: unit not given here. How it is done: as §1, §2
Data set [7] concerns Candida albicans ATCC 90028. It counts as cell-based. Particulars: C. albicans; Control: two-step microdilution assay in Tris buffer 10 mM without salts; median of triplicates. How it is done: as §3
(§5) Antimicrobial activities of the peptides were evaluated using the two-step microdilution assay, which is designed for testing AMPs without activity-inhibiting components. Briefly, bacteria were grown to the mid-logarithmic phase at 37 °C in 3% (w/v) tryptic soy broth (TSB) (Merck KGaA, Darmstadt, Germany). The microbial culture was washed twice by centrifugation and resuspension in 10 mM Tris buffer (pH 7.4 at 37 °C, adjusted by HCl). The microbial suspension was quantified by OD600, diluted, and transferred to 96-well untreated polystyrene microplates prepared with 2-fold serial dilutions of the peptides using 50,000 bacteria per well (all dilutions in Tris buffer). These were incubated for 5 h at 37 °C, after which 5 µL of 20% (w/v) TSB was added to each well and the microplates were re-incubated for an additional 6–12 h (depending on the growth rate of each organism). All MICs presented are the medians from triplicate experiments performed independently.
(§6) A two-step assay was supplemented with a physiological concentration of salts and diluted human serum and the MIC of the peptides was evaluated as in 4.6.
Background: Broth dilution looks for growth in wells or tubes with falling amounts of substance.

In data set [8] the test system is Staphylococcus aureus ATCC 29213. The format is cell-based. Particulars: S. aureus; Control: two-step microdilution assay in Tris buffer 10 mM without salts; median of triplicates. How it is done: as §3, §5, §6
For data set [9], the system named is Pseudomonas aeruginosa ATCC 27853. It counts as cell-based. Particulars: P. aeruginosa; Control: two-step microdilution assay in Tris buffer 10 mM without salts; median of triplicates. How it is done: as §3, §5, §6
Data set [10] has as its system Staphylococcus aureus ATCC 29213. It counts as cell-based. Particulars: ATCC 29213, 24 h.
Source text: as §3, §4

The subject of data set [11] is Escherichia coli ATCC 25922. It counts as cell-based. Particulars: ATCC 25922, 24 h.
Source text: as §3, §4

Data set [12] relates to Pseudomonas aeruginosa ATCC 27853. The format is cell-based. Particulars: ATCC 27853, 24 h.
Source text: as §3, §4

The test system of data set [13] is Bacillus subtilis CCUG 163BT. It counts as cell-based. Particulars: CCUG 163, 5 h. How it is done: as §3, §5
Setting [14] is: S. typhimurium phoP LL-37-resistant mutant.
Where [15] appears, read: S. typhimurium waaY LL-37-resistant mutant.

T1 sequence (P81177 209-509): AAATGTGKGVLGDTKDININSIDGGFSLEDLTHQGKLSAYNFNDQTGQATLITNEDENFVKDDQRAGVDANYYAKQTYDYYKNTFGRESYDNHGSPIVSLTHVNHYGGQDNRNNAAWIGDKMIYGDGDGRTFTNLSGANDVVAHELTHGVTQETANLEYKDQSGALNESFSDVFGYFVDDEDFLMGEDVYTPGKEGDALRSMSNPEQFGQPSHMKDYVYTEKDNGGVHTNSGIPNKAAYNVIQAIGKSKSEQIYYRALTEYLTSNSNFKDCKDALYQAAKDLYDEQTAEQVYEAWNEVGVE

`CC[C@H](C)[C@@H]1NC(=O)[C@H](CCCNC(=N)N)NC(=O)[C@@H]2CSSC[C@H](NC(=O)[C@H](CCCCN)NC(=O)[C@H]([C@@H](C)CC)NC(=O)[C@H](CCCNC(=N)N)NC(=O)[C@H](CCCCN)NC(=O)[C@H](C(C)C)NC(=O)[C@H]([C@@H](C)CC)NC(=O)[C@H](CCCNC(=N)N)NC(=O)[C@H](CCCCN)NC(=O)CNC(=O)CNC(=O)[C@@H]3CCCN3C(=O)CNC(=O)[C@H](CCCNC(=N)N)NC(=O)[C@H](CC(C)C)NC(=O)[C@H](Cc3ccccc3)NC(=O)[C@H](C)NC(=O)[C@H](CCCCN)NC1=O)C(=O)N[C@@H](Cc1ccccc1)C(=O)N[C@@H](CC(C)C)C(=O)N[C@@H](CCCNC(=N)N)C(=O)NCC(=O)N1CCC[C@H]1C(=O)NCC(=O)NCC(=O)N[C@@H](CCCCN)C(=O)N[C@@H](CCCNC(=N)N)C(=O)N[C@@H]([C@@H](C)CC)C(=O)N[C@@H](C(C)C)C(=O)N2` [cd4-CCPP] (cyclo(CFLRGPGGKRIVCRIKAFLRGPGGKRIVKRIK); disulfide 1-13): the “time for which the peptide was stable in aureolysin (stable for up to)” value in [1] is reported as ≥ 8 h. Also, the MIC in [2] (S. typhimurium WT (DA6192)) is 2.5; in data set [2] (setting [14]), 1.25; in [2] (setting [15]), 1.25; in [3] it was > 40 µM; in [4] it was > 40 µM; in data set [6] (E. coli DA54114 cyclotide-resistant mutant, sodium phosphate buffer with 0.1% TSB, average MIC), 0.25. Moreover, the MIC in data set [6] (E. coli DA57107 cyclotide-resistant mutant, sodium phosphate buffer with 0.1% TSB, average MIC) is 0.25; in data set [6] (E. coli WT (MG1655), 20 mM sodium phosphate buffer with 0.1% TSB, 16 to 20 h, 37 °C), 0.37; in data set [7], 0.625 µM; in data set [8] it was 0.625 µM; in data set [9], 0.625 µM. In addition, the “bacterial target selectivity relative to LL-37 (factor)” value in [5] is 6 fold.

`CC[C@H](C)[C@@H]1NC(=O)[C@H](CCCNC(=N)N)NC(=O)[C@@H]2CSSC[C@H](NC(=O)[C@H](CCCCN)NC(=O)[C@H]([C@@H](C)CC)NC(=O)[C@H](CCCNC(=N)N)NC(=O)[C@H](CCCCN)NC(=O)[C@H](C(C)C)NC(=O)[C@H]([C@@H](C)CC)NC(=O)[C@H](CCCNC(=N)N)NC(=O)[C@H](CCCCN)NC(=O)CNC(=O)CNC(=O)[C@H](C)NC(=O)CNC(=O)[C@H](CCCNC(=N)N)NC(=O)[C@H](CC(C)C)NC(=O)[C@H](Cc3ccccc3)NC(=O)[C@H](C)NC(=O)[C@H](CCCCN)NC1=O)C(=O)N[C@@H](Cc1ccccc1)C(=O)N[C@@H](CC(C)C)C(=O)N[C@@H](CCCNC(=N)N)C(=O)NCC(=O)N[C@@H](C)C(=O)NCC(=O)NCC(=O)N[C@@H](CCCCN)C(=O)N[C@@H](CCCNC(=N)N)C(=O)N[C@@H]([C@@H](C)CC)C(=O)N[C@@H](C(C)C)C(=O)N2` [cd4-CC] (cyclo(CFLRGAGGKRIVCRIKAFLRGAGGKRIVKRIK); disulfide 1-13): the MIC in [2] (S. typhimurium WT (DA6192)) was 1.25; in data set [2] (setting [14]), 1.25; in data set [2] (setting [15]) it was 2.5; in data set [3], > 40 µM; in data set [4], > 40 µM; in data set [10], >40 µM. The MIC in data set [11] came to 5 µM (≈ 17.5 µg/mL); in data set [12], 5 µM (≈ 17.5 µg/mL); in [13], 0.625 µM (≈ 2.19 µg/mL).
